Experiment [1] addresses T1, Amyloid-beta precursor protein (Homo sapiens, UniProt P05067). As to the kind of experiment: Inhibition of HFIP-pretreated amyloid beta (1 to 42) (unknown origin) self-induced aggregation after 24 hrs by thioflavin-T fluorescence assay.
For experiment [2], the target named is T1, Amyloid-beta precursor protein. Description: Inhibition of HFIP-pretreated amyloid beta (1 to 42) (unknown origin) self-induced aggregation at 20 uM after 24 hrs by thioflavin-T fluorescence assay relative to control.
Experiment [3] is described as follows: Antioxidant activity assessed as ABTS radical scavenging activity incubated for 10 mins in dark. The experiment is classed as functional.
The target in experiment [4] is T1, Amyloid-beta precursor protein. Description: Disaggregation of Fe3+-induced amyloid beta (1 to 42) (unknown origin) preformed fibrils at 75 uM after 24 hrs by uranyl acetate staining based transmission electron microscopic analysis.
The target is the same in experiment [5]. Description: Disaggregation of Cu2+-induced amyloid beta (1 to 42) (unknown origin) preformed fibrils assessed as remaining amyloid beta aggregation level at […] after 24 hrs by thioflavin-T fluorescence assay.
The nature of experiment [6]: Metal chelating activity assessed as compound-nitriloacetate Fe3+ complex formation by UV-spectrophotometric analysis.
Experiment [7] in a line: Metal chelating activity assessed as inhibition of Cu2+-induced amyloid beta (1 to 42 residues) fibrils at 50 uM after 24 hrs by uranyl acetate staining based transmission electron microscopic analysis.
A short description of experiment [8]: Metal chelating activity assessed as inhibition of Fe3+-induced amyloid beta (1 to 42 residues) fibrils at 50 uM after 24 hrs by uranyl acetate staining based transmission electron microscopic analysis.
The target of experiment [9] is T1, Amyloid-beta precursor protein. Description: Disaggregation of Fe3+-induced amyloid beta (1 to 42) (unknown origin) preformed fibrils assessed as remaining amyloid beta aggregation level at […] after 24 hrs by thioflavin-T fluorescence assay.
Experiment [10] is described as follows: Metal chelating activity assessed as inhibition of Fe2+-induced amyloid beta (1 to 42 residues) fibrils after 24 hrs by thioflavin-T fluorescence assay.
The nature of experiment [11]: Metal chelating activity assessed as inhibition of Cu2+-induced amyloid beta (1 to 42 residues) fibrils after 24 hrs by thioflavin-T fluorescence assay.
The target in experiment [12] is T1, Amyloid-beta precursor protein. Description: Disaggregation of self-induced amyloid beta (1 to 42) (unknown origin) preformed fibrils at 50 uM after 24 hrs by uranyl acetate staining based transmission electron microscopic analysis.
Experiment [13] has the same target. As to the kind of experiment: Disaggregation of Cu2+-induced amyloid beta (1 to 42) (unknown origin) preformed fibrils at 50 uM after 24 hrs by uranyl acetate staining based transmission electron microscopic analysis.
The nature of experiment [14]: Metal chelating activity assessed as inhibition of Fe3+-induced amyloid beta (1 to 42 residues) fibrils by measuring fluorescence level after 24 hrs by thioflavin-T fluorescence assay. On the set-up: scale not given: the % may be the effect or the level left.

The source made the active and inactive calls. No cut-off for these calls is given here.

What is called IC50 is the concentration that inhibits the measured activity by half. A word on the inhibition: it is the relative decrease from the control value, in per cent.

T1 sequence (P05067 whole entry): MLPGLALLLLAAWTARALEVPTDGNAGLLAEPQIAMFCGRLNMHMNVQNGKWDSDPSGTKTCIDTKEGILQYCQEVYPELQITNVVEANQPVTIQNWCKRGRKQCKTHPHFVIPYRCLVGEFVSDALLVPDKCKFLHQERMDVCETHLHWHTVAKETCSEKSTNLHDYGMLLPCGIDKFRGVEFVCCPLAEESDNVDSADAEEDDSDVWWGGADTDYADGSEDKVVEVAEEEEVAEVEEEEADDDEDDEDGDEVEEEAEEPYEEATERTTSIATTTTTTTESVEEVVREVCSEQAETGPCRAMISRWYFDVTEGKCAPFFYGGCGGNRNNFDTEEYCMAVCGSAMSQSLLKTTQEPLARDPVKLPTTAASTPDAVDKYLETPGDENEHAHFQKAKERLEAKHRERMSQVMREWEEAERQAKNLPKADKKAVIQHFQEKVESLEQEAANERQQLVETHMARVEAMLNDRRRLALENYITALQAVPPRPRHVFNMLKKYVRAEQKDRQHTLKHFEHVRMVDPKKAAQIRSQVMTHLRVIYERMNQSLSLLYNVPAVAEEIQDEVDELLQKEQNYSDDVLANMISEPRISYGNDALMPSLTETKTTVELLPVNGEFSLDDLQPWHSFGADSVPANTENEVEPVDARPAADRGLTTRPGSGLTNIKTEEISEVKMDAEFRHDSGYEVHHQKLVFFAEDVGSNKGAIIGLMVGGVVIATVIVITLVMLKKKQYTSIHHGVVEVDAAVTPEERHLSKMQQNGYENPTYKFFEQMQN

For the molecule `O=c1cc(/C=C/c2cc(O)cc(O)c2)occ1O`, the results for the IC50 in [1] and in [3] were 17.9 µM and 1.19 µM, respectively. Besides, the inhibition in experiment [2] stood at 56.9%.

`Cc1c(C)c2c(c(C)c1O)CCC(C)(C(=O)O)O2` (stereo unspecified) [TROLOX]: in [3], the IC50 was found to be 3.89 µM.

As to `CN(C)c1ccc(/C=C/c2cc(=O)c(O)co2)cc1`, the values for the IC50 in experiment [1] and in [3] were 5.92 µM and 3.05 µM, respectively. Further, in experiment [2], the inhibition worked out at 61.2%.

As for `O=c1cc(/C=C/c2ccc([N+](=O)[O-])cc2)occ1O`, the IC50 in experiment [3] is 1.7 µM.

`COc1ccccc1/C=C/c1cc(=O)c(O)co1`: the IC50 in experiment [1] came out at 7.93 µM; in experiment [3], 3.47 µM. The inhibition in experiment [2] is 61.1%.

`O=c1cc(/C=C/c2ccc(O)cc2)occ1O`: the result in experiment [4], in experiment [6], in [12] and in experiment [13] was Active. For the same molecule, the IC50 in experiment [1] amounted to 7.2 µM; in experiment [3] it was 1.94 µM. Further, the Activity in experiment [5] turned out to be 68%; in experiment [9], 14%; in [14], 19%. The inhibition entry in experiment [7] and in experiment [8] was “Active” throughout. The inhibition result in experiment [10] and in experiment [11] was “inactive” throughout. For the same molecule, the inhibition in experiment [2] is 68.5%.

As for `COc1cc(/C=C/c2cc(=O)c(O)co2)cc(OC)c1`, the inhibition in experiment [2] is 18.6%. For the same molecule, the IC50 in experiment [3] is 1.79 µM.

Take `O=c1cc(/C=C/c2ccc(Cl)cc2)occ1O`: the inhibition in experiment [2] was 18%. Also, the IC50 in experiment [3] turned out to be 1.95 µM.

With `CCOc1ccc(/C=C/c2cc(=O)c(O)co2)cc1`, in experiment [2], the inhibition amounted to 38.2%. Also, the IC50 in experiment [3] was found to be 4.21 µM.

With `O=c1cc(/C=C/c2cccc(F)c2)occ1O`, the IC50 in experiment [1] amounted to 17.7 µM; in experiment [3] it was 3.45 µM. The inhibition in [2] is 58%.

In the case of `O=c1cc(/C=C/c2ccccc2O)occ1O`, the result in experiment [4], in [12] and in experiment [13] was Active. In addition, the IC50 in experiment [1] came out at 8.29 µM; in [3], 1.18 µM. The Activity came to 62% in experiment [5], 17% in experiment [9] and 16% in experiment [14]. In addition, the inhibition entry in [7] and in [8] was “Active” in each case. Also, the inhibition result in experiment [10] and in experiment [11] was “inactive” throughout. For the same molecule, in [2], the inhibition was 63.6%.

`O=c1cc(/C=C/c2ccccc2)occ1O`: the inhibition in [2] amounted to 42.5%. In addition, in [3], the IC50 is 2.25 µM.

As for `Oc1ccc(/C=C/c2cc(O)cc(O)c2)cc1` [RESVERATROL], the outcome in experiment [4], in [12] and in experiment [13] was Active. Also, the inhibition result in experiment [7] and in experiment [8] was “Active” each time. For the same molecule, the Activity in experiment [9] worked out at 58%. The IC50 in [3] was found to be 0.76 µM.
